Here are results for 1 molecule from patent US7678390B2, “Carbon monoxide as a biomarker and therapeutic agent” (priority 1999, dated 2010).

This assay has as its system MKK3(−/−) mice given LPS. Kind of assay: LPS-induced serum cytokines in MKK3(-/-) mice. It counts as in vivo, mouse. The settings on record: LPS 1 mg/kg, 250 ppm CO. An excerpt: Animals. Male C57BL/6 and IL-10 (−/−) mice were purchased from Jackson Laboratory (Bar Harbor, Me.), and allowed to acclimate for one week with rodent chow and water ad libitum. The MKK (−/−) mice were generated as previously described [Lu, et al., EMBO J. 18:1845-1857 (1999)]. Wild type littermates were used as controls. All animals were housed in accordance with guidelines from the American Association for Laboratory Animal Care and Research Protocols and were approved by the Animal Care and Use Committee of Yale University School of Medicine. Reagents. All reagents were purchased from Sigma Chemical Co. (St Louis, Mo.) unless specified otherwise. Plasmid Construct. Plasmid pSFFV/HO-1 was constructed by insertion of the rat HO-1 cDNA [Shibahara, et al., Proc. Natl. Acad. Sci. USA. 82: 7865-7869 (1985)] downstream of the Friend spleen focus-forming virus 5′ long-terminal repeat in the mammalian expression vector pSFFV/neo [Fuhlbrigge, et al, Proc. Natl. Acad. Sci. USA. 85: 5649-5653 (1988)] (kindly provided by Stanley Korsmeyer). Transfection. […] Gas samples were taken by the analyzer through a port in the top of the chambers at a rate of 1 L/min and analyzed by electrochemical detection, with a sensitivity of 10-600 ppm. Concentration levels were measured hourly and there were no fluctuations in the CO concentrations once the chamber had equilibrated (approximately 5 min). […]

Turning to `[C-]#[O+]` [CO, carbon monoxide], the “LPS-induced TNF-α production” value is reported as “did not affect” and the “serum IL-10 levels after LPS” value is “did not exhibit augmented serum IL-10 levels”.
